Drawing on US11178871B2, “Herbicidal pyrimidine compounds” (BASF SE, priority 2016, dated 2021), this text covers herbicidal activity for 20 molecules.

Holding throughout (type): in vivo
Experiment [1] relates to Abutilon theophrasti. The experiment can be described thus: greenhouse test, post-emergence treatment, ABUTH. The text has this:
(§1) The culture containers used were plastic flowerpots containing loamy sand with approximately 3.0% of humus as the substrate. The seeds of the test plants were sown separately for each species.
(§2) For the post-emergence treatment, the test plants were first grown to a height of 3 to 15 cm, depending on the plant habit, and only then treated with the active ingredients which had been suspended or emulsified in water. For this purpose, the test plants were either sown directly and grown in the same containers, or they were first grown separately as seedlings and transplanted into the test containers a few days prior to treatment.
(§3) Depending on the species, the plants were kept at 10-25° C. or 20-35° C., respectively.
(§4) The test period extended over 2 to 4 weeks. During this time, the plants were tended, and their response to the individual treatments was evaluated.
(§5) Evaluation was carried out using a scale from 0 to 100. 100 means no emergence of the plants, or complete destruction of at least the aerial moieties, and 0 means no damage, or normal course of growth. A good herbicidal activity is given at values of at least 70 and a very good herbicidal activity is given at values of at least 85.
(§6) The plants used in the greenhouse experiments were of the following species: […]

The subject of experiment [2] is Amaranthus retroflexus. The experiment can be described thus: greenhouse test, post-emergence treatment, AMARE.
From the text: as §1, §2, §3, §4, §5, §6

The test system of experiment [3] is Setaria viridis. As to the kind of experiment: greenhouse test, post-emergence treatment, SETVI.
From the text: as §1, §2, §3, §4, §5, §6

For experiment [4], the system named is Avena fatua. The experiment can be described thus: greenhouse test, post-emergence treatment, AVEFA. The method, boiled down:
(§7)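 Herbicidal effect is rated 0–100, where 100 denotes total destruction of aerial parts and 0 denotes unaffected growth. Treatment occurs once plants reach 3–15 cm in humus-containing loamy sand, with compound applied in water; the trial runs 2–4 weeks at 10–25 °C or 20–35 °C.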

The test system of experiment [5] is Echinocloa crus-galli. As to the kind of experiment: greenhouse test, post-emergence treatment, ECHCG. Conditions: post-emergence. The method, boiled down:
as §7

Experiment [6] concerns Apera spica-venti. As to the kind of experiment: greenhouse test, pre-emergence treatment, APESV. In a few lines: (§8)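 Herbicidal effect rated on a 0-100 scale, where 0 is normal growth and 100 is no emergence or destroyed aerial parts, 2 to 4 weeks after soil application at sowing.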
The test system of experiment [7] is Alopecurus myosuroides. As to the kind of experiment: greenhouse test, post-emergence treatment, ALOMY. Conditions: post-emergence. In a few lines:
as §7

Experiment [8] deals with Echinocloa crus-galli. As to the kind of experiment: greenhouse test, pre-emergence treatment, ECHCG. The method, boiled down:
as §8

For the molecule `Cc1ccccc1-c1cnc(C2CC2)nc1C` [Ex. 19], the herbicidal activity entry in experiment [1] (2000 g/ha) and in experiment [2] (2000 g/ha) was “very good (a very good herbicidal activity is given at values of at least 85)” throughout.

Turning to `CC(C)CC#Cc1nc(C2CC2)ncc1-c1ccccc1Cl` [Ex. 28], the herbicidal activity result in experiment [1] (1163 g/ha) is “good (A good herbicidal activity is given at values of at least 70)”; in experiment [2] (1163 g/ha) it was “very good (a very good herbicidal activity is given at values of at least 85)”.

Take `Cc1nc(C(C)(Br)Br)ncc1-c1ccccc1Cl` [Ex. 50]: the herbicidal activity entry in experiment [2] (500 g/ha) and in experiment [3] (500 g/ha) was “very good (a very good herbicidal activity is given at values of at least 85)” each time.

On to `Clc1ccccc1-c1cnc(C2CC2)nc1C1CCCS1` (centres unmarked) [Ex. 55], for which the herbicidal activity result in experiment [2] (1000 g/ha) and in experiment [3] (1000 g/ha) was “very good (a very good herbicidal activity is given at values of at least 85)” throughout.

`Cc1occc1-c1nc(C2CC2)ncc1-c1ccccc1Cl` [Ex. 58]: the herbicidal activity entry in experiment [4] (1000 g/ha) is reported as “good (A good herbicidal activity is given at values of at least 70)”; in experiment [3] (1000 g/ha), “very good (a very good herbicidal activity is given at values of at least 85)”.

Consider `COC(=O)C(C)c1nc(C2CC2)ncc1-c1ccccc1Br` (centres unmarked) [Ex. 85], for which the results for the herbicidal activity entry in experiment [1] (2000 g/ha) and in experiment [2] (2000 g/ha) were “very good (a very good herbicidal activity is given at values of at least 85)” and “good (A good herbicidal activity is given at values of at least 70)”, respectively.

For `Clc1ccccc1-c1cnc(C2CC2)nc1-c1cccnc1` [Ex. 123], the herbicidal activity result is on record as “very good (a very good herbicidal activity is given at values of at least 85)” in experiment [2] (2000 g/ha) and “good (A good herbicidal activity is given at values of at least 70)” in experiment [3] (2000 g/ha).

As for `COc1ncc(-c2ccccc2Cl)c(/C=C/c2ccco2)n1` [Ex. 228], the results for the herbicidal activity entry in experiment [1] (1000 g/ha), in experiment [5] (1000 g/ha) and in experiment [6] (1000 g/ha) were “good (A good herbicidal activity is given at values of at least 70)”, “good (A good herbicidal activity is given at values of at least 70)” and “very good (a very good herbicidal activity is given at values of at least 85)”, respectively.

For `Cc1coc(C)c1-c1nc(C2CC2)ncc1-c1ccccc1Br` [Ex. 252], the herbicidal activity result in experiment [1] (1000 g/ha) was “very good (a very good herbicidal activity is given at values of at least 85)”.

`Cc1oc(Br)cc1-c1nc(C2CC2)ncc1-c1ccccc1Br` [Ex. 253]: the results for the herbicidal activity entry in experiment [1] (1000 g/ha), in experiment [7] (1000 g/ha) and in experiment [2] (1000 g/ha) were “good (A good herbicidal activity is given at values of at least 70)”, “very good (a very good herbicidal activity is given at values of at least 85)” and “very good (a very good herbicidal activity is given at values of at least 85)”, respectively.

`Cc1ncoc1-c1nc(C2CC2)ncc1-c1cc(C(F)(F)F)ccc1Cl` [Ex. 262]: the herbicidal activity entry in experiment [2] (1000 g/ha), in experiment [5] (1000 g/ha), in experiment [3] (1000 g/ha), in experiment [6] (1000 g/ha) and in experiment [8] (1000 g/ha) was “very good (a very good herbicidal activity is given at values of at least 85)” each time.

Regarding `CC1(C)OC(c2nc(C3CC3)ncc2-c2ccccc2Cl)C(C)(C)O1` (centres unmarked) [Ex. 266], the herbicidal activity entry in experiment [1] (1000 g/ha), in experiment [7] (1000 g/ha), in experiment [2] (1000 g/ha), in experiment [6] (1000 g/ha) and in experiment [8] (1000 g/ha) was “very good (a very good herbicidal activity is given at values of at least 85)” in each case.

Consider `CCc1nc(C)c(-c2nc(C3CC3)ncc2-c2ccccc2Cl)o1` [Ex. 272], for which the herbicidal activity result in experiment [7] (2000 g/ha), in experiment [4] (2000 g/ha), in experiment [3] (2000 g/ha), in experiment [6] (2000 g/ha) and in experiment [8] (2000 g/ha) was “very good (a very good herbicidal activity is given at values of at least 85)” in each case.

Turning to `Cc1ncoc1-c1nc(C2CC2)ncc1-c1cc(Br)ccc1Br` [Ex. 273], the herbicidal activity result in experiment [7] (1000 g/ha), in experiment [2] (1000 g/ha), in experiment [3] (1000 g/ha), in experiment [6] (1000 g/ha) and in experiment [8] (1000 g/ha) was “very good (a very good herbicidal activity is given at values of at least 85)” in each case.

In the case of `Cc1nc(C)c(-c2nc(C3CC3)ncc2-c2ccc(F)cc2Cl)o1` [Ex. 276], the herbicidal activity result in experiment [1] (1000 g/ha), in experiment [7] (1000 g/ha), in experiment [2] (1000 g/ha) and in experiment [6] (1000 g/ha) was “very good (a very good herbicidal activity is given at values of at least 85)” throughout.

With `Clc1cncc(-c2nc(C3CC3)ncc2-c2ccccc2Cl)c1` [Ex. 279], the herbicidal activity result in experiment [1] (1000 g/ha), in experiment [7] (1000 g/ha), in experiment [2] (1000 g/ha), in experiment [6] (1000 g/ha) and in experiment [8] (1000 g/ha) was “very good (a very good herbicidal activity is given at values of at least 85)” each time.

As to `CCc1ocnc1-c1nc(C2CC2)ncc1-c1ccccc1Cl` [Ex. 282], the herbicidal activity result in experiment [7] (2000 g/ha), in experiment [4] (2000 g/ha), in experiment [3] (2000 g/ha), in experiment [6] (2000 g/ha) and in experiment [8] (2000 g/ha) was “very good (a very good herbicidal activity is given at values of at least 85)” each time.

Turning to `Cn1c(-c2nc(C3CC3)ncc2-c2ccccc2Cl)coc1=O` [Ex. 289], the herbicidal activity entry in experiment [7] (2000 g/ha), in experiment [2] (2000 g/ha), in experiment [3] (2000 g/ha), in experiment [6] (2000 g/ha) and in experiment [8] (2000 g/ha) was “very good (a very good herbicidal activity is given at values of at least 85)” throughout.

`CC(C)(C)c1ncc(-c2nc(C3CC3)ncc2-c2ccccc2Cl)o1` [Ex. 294]: the herbicidal activity result is listed as “very good (a very good herbicidal activity is given at values of at least 85)” in experiment [1] (2000 g/ha), “very good (a very good herbicidal activity is given at values of at least 85)” in experiment [7] (2000 g/ha), “very good (a very good herbicidal activity is given at values of at least 85)” in experiment [5] (2000 g/ha) and “good (A good herbicidal activity is given at values of at least 70)” in experiment [6] (2000 g/ha).

On to `CC1(C)OCC(=Cc2nc(C3CC3)ncc2-c2ccccc2Cl)CO1` [Ex. 296], for which the herbicidal activity result in experiment [1] (1000 g/ha) was “very good (a very good herbicidal activity is given at values of at least 85)”.
